Data published in US10519147B2 (Merck Sharp & Dohme Corp., priority 2015, dated 2019).

What was measured:
human Nav1.7 = target: T1, human Nav1.7 (Homo sapiens, UniProt Q15858); experiment: IonWorks Quattro automated patch-clamp, inactivated state block of Nav1.7; format: cell-based; conditions: channels stably expressed in HEK 293 cells; double-pulse protocol, inactivated state block; read-out: potency for the Nav 1.7 sodium ion channel (IC50, as measured by IonWorks)
T1 construct: expressed in transfected cells; host or cells: HEK 293
Procedure: (§1) Compounds were tested on human Nav1.7 and Nav1.5 channels stably expressed in HEK 293 cells. […] Cells were sealed on a planar substrate using the Population Patch […] (PPC) technology. Electrical access was obtained using both nystatin and amphotericin. A double-pulse protocol was used for the determination of IC50 values for inactivated state block. Nav1.7 and Nav1.5 expressing cells were voltage clamped at −100 mV and −110 mV, respectively. A depolarizing prepulse to −10 mV (Nav1.7) or −30 mV (Nav1.5) for 1000 ms followed by a 10 ms repolarization to −100 mV (Nav1.7) or −110 mV (Nav1.5) was given to generate fractional channel inactivation of 50%, followed by a 10 ms test pulse to −10 mV (Nav1.7) or −30 mV (Nav1.5) to measure peak current in control conditions and after compound addition. The following recording solutions were used (mM). External: 150 NaCl, 2 CaCl2, 5 KCl, 1 Mg Cl2, 10 HEPES, 12 Dextrose; internal: 120 CsF, 30 CsCl, 10 EGTA, 5 HEPES, 5 NaF, 2 MgCl2.
(§2) For all electrophysiology experiments, offline analysis was used to determine percent inhibition as a function of drug concentration. IC50 values were determined by fitting to the Hill equation.

human Nav1.5 = target: T2, human Nav1.5 (Homo sapiens, UniProt Q14524); experiment: IonWorks Quattro automated patch-clamp, Nav1.5 (selectivity against Nav1.7); format: cell-based; conditions: IonWorks measurement, HEK 293 cells, inactivated state block
T2 construct: expressed in transfected cells; host or cells: HEK 293
Procedure: as §1, §2

T1 sequence (Q15858 whole entry): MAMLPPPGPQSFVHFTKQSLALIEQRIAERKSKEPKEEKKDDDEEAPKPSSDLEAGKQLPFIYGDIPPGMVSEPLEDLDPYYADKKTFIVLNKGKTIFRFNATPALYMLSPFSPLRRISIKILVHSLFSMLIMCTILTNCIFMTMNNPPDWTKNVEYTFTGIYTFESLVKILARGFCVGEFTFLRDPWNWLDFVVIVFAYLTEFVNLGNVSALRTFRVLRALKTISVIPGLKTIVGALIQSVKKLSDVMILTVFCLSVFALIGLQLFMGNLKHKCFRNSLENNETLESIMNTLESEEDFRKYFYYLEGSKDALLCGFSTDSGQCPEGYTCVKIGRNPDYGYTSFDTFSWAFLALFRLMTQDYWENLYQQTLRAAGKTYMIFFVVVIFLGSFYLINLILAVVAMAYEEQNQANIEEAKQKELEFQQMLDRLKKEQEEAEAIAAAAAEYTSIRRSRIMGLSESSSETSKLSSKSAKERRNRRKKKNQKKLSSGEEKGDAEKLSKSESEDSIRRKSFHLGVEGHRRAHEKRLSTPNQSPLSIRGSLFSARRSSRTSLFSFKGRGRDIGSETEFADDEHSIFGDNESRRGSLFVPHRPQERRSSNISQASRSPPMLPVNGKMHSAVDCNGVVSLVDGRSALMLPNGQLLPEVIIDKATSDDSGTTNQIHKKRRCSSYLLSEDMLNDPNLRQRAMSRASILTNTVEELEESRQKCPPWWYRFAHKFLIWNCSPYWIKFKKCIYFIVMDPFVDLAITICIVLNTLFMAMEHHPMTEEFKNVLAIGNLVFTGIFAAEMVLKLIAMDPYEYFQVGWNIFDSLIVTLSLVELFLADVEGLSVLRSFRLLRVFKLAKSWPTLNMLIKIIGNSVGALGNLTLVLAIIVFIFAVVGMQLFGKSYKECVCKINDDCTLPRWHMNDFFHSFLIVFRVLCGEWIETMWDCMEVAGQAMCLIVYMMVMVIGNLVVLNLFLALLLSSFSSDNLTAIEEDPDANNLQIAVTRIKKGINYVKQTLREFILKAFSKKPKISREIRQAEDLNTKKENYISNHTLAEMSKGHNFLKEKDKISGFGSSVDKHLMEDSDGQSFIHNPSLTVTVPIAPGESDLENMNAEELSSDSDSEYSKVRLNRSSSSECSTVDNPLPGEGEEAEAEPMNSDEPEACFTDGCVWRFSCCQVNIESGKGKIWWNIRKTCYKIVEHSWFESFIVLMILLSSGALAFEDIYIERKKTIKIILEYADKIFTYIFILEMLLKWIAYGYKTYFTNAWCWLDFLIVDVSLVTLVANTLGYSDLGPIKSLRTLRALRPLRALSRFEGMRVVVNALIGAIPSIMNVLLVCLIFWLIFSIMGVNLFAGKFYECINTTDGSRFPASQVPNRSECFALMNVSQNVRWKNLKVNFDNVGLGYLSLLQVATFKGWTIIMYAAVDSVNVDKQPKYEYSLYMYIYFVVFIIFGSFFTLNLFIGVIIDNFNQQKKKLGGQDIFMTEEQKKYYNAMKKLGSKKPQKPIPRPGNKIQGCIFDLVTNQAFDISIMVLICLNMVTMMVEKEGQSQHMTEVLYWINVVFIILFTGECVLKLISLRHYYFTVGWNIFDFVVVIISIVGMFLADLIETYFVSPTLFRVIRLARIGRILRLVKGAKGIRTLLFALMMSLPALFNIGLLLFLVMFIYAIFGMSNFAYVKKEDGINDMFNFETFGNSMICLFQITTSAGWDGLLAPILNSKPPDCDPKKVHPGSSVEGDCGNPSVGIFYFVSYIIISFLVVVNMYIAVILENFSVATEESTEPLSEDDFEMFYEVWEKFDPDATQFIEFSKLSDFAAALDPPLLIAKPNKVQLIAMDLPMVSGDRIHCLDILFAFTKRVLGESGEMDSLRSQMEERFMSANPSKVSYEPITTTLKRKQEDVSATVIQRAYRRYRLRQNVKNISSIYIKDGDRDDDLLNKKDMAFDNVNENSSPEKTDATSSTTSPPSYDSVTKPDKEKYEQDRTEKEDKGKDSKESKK
T2 sequence (Q14524 whole entry): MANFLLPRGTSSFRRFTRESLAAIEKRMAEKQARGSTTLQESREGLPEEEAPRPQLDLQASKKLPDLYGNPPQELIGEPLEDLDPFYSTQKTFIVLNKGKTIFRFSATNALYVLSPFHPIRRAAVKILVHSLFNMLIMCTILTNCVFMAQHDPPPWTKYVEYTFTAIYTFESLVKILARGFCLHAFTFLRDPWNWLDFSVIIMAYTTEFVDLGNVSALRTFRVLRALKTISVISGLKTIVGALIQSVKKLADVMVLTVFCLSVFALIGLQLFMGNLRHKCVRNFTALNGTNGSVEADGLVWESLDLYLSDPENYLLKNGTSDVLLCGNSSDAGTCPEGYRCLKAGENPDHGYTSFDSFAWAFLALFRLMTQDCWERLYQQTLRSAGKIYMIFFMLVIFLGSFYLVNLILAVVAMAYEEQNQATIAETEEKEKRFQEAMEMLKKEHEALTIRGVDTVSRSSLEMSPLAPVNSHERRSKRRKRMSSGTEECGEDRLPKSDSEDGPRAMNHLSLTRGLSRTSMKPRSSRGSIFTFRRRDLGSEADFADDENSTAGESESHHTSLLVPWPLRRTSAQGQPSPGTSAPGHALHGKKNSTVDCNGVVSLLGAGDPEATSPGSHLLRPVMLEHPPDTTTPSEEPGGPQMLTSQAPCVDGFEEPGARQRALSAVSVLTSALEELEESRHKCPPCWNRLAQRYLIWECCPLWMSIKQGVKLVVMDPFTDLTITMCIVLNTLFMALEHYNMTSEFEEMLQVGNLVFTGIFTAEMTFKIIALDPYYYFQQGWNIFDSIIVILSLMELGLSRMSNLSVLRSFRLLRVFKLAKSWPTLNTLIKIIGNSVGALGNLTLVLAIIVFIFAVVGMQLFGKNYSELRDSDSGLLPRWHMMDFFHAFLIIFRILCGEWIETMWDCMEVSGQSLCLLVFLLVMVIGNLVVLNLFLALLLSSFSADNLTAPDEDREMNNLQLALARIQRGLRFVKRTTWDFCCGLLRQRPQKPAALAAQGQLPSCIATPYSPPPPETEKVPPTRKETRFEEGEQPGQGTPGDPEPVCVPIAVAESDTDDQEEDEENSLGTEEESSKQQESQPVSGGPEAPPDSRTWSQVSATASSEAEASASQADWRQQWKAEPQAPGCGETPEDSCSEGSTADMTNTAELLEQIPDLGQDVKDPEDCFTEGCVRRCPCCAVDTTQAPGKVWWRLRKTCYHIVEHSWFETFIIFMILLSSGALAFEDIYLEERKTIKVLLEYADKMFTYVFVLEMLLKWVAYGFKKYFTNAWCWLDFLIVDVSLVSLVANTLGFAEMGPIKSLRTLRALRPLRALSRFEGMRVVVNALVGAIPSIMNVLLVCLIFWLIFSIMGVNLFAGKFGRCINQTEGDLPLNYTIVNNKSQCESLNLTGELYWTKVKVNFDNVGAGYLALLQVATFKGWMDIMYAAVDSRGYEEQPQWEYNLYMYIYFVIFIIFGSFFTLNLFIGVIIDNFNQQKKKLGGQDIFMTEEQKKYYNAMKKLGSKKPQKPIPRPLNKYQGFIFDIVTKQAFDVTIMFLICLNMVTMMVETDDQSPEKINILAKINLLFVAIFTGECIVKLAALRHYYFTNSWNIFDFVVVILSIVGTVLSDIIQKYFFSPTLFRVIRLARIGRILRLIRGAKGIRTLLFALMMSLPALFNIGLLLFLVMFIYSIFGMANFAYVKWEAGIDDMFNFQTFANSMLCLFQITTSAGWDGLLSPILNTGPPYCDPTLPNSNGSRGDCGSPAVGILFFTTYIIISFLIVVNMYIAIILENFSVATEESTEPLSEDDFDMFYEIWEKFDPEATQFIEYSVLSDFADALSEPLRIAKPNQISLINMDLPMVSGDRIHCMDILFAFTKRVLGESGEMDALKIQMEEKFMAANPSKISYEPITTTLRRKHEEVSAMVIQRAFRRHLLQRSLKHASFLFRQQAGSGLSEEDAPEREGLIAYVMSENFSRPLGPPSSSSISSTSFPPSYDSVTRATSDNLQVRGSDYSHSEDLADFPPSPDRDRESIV

SMILES | IC50 (human Nav1.7) [nM] | ratio of Nav 1.7 potency:Nav 1.5 potency (human Nav1.5)
N[C@@H]1CCC[C@@H]1NCCCCNc1cc(F)c(S(=O)(=O)Nc2nccs2)cc1Cl [Ex 1-29, 4-[(4-{[(1S,2R)-2-aminocyclopentyl]amino}butyl)amino]-5-chloro-2-fluoro-N-1,3-thiazol-2-ylbenzenesulfonamide] | 52 | > 635
O=S(=O)(Nc1ncns1)c1cc(F)c(NCCCCNC[C@@H]2CCCN2)cc1F [Ex 7-7, 2,5-difluoro-4-[(4-{[(2S)-pyrrolidin-2-ylmethyl]amino}butyl)amino]-N-1,2,4-thiadiazol-5-ylbenzenesulfonamide] | 80 | > 410
N[C@@H]1CCC[C@H]1NCCCCNc1cc(F)c(S(=O)(=O)Nc2ncns2)cc1Cl [Ex 12-07, 4-[(4-{[(1R,2R)-2-aminocyclo-pentyl]amino}butyl)amino]-5-chloro-2-fluoro-N-1,2,4-thiadiazol-5-yl-benzene-sulfonamide] | 6 | > 5500
N[C@@H]1CCC[C@H]1NCCCCNc1cc(F)c(S(=O)(=O)Nc2ncc(F)s2)cc1Cl [Ex 16-05, 4-[(4-{[(1R,2R)-2-aminocyclopentyl]-amino}-butyl)-amino]-5-chloro-2-fluoro-N-(5-fluoro-1,3-thiazol-2-yl)-benzene-sulfonamide] | 5 | 3400
C[C@@H](N)CNCCCCNc1cc(F)c(S(=O)(=O)Nc2ncc(F)s2)cc1Cl [Ex 16-06, 4-[(4-{[(1R,2R)-2-aminopropyl]amino}-butyl)amino]-5-chloro-2-fluoro-N-(5-fluoro-1,3-thiazol-2-yl)benzene-sulfonamide] | 8.1 | > 4070
O=S(=O)(Nc1ncns1)c1cc(Cl)c(NCCCCNCC[C@H]2CCCN2)cc1F [Ex 16-20, 5-chloro-2-fluoro-4-{[4-({2-[(2R)-pyrrolidin-2-yl]ethyl}-amino)butyl]amino}-N-1,2,4-thiadiazol-5-ylbenzene-sulfonamide] | 80 | > 412
O=S(=O)(Nc1ncns1)c1cc(Cl)c(NCCCCNCC[C@@H]2CCCN2)cc1F [Ex 16-21, 5-chloro-2-fluoro-4-{[4-({2-[(2S)-pyrrolidin-2-yl]ethyl}-amino)butyl]amino}-N-1,2,4-thiadiazol-5-ylbenzene-sulfonamide] | 31 | > 1046
O=S(=O)(Nc1ncc(F)s1)c1cc(Cl)c(NCCCCNCC[C@@H]2CCCN2)cc1F [Ex 16-24, 5-chloro-2-fluoro-N-(5-fluoro-1,3-thiazol-2-yl)-4-{[4-({2-[(2S)-pyrrolidin-2-yl]ethyl}amino)butyl]amino} benzenesulfonamide] | 21 | > 1571
CNCCCNCCCCNc1cc(F)c(S(=O)(=O)Nc2ncc(F)s2)cc1Cl [Ex 16-28, 5-chloro-2-fluoro-N-(5-fluoro-1,3-thiazol-2-yl)-4-[(4-{[3-(methylamino)-propyl]amino}butyl)amino]-benzenesulfonamide] | 25 | > 1320
C[C@@H](N)CCNCCCCNc1cc(F)c(S(=O)(=O)Nc2ncc(F)s2)cc1Cl [Ex 16-30, 4-[(4-{[(3R)-3-amino-butyl]amino}butyl)amino]-5-chloro-2-fluoro-N-(5-fluoro-1,3-thiazol-2-yl)benzene-sulfonamide] | 14 | > 2357
NCCCNCCCCNc1cc(F)c(S(=O)(=O)Nc2ncns2)cc1Cl [Ex 16-32, 4-({4-[(3-aminopropyl)-amino]butyl}amino)-5-chloro-2-fluoro-N-1,2,4-thiadiazol-5-ylbenzene-sulfonamide] | 49 | > 673
NCCNCCCCNc1cc(F)c(S(=O)(=O)Nc2ncc(F)s2)cc1Cl [Ex 16-57, 4-({4-[(2-aminoethyl)-amino]butyl}amino)-5-chloro-2-fluoro-N-(5-fluoro-1,3-thiazol-2-yl) benzene-sulfonamide] | 7.5 | > 4400
NCC1(NCCCCNc2cc(F)c(S(=O)(=O)Nc3ncc(F)s3)cc2Cl)CCC1 [Ex 16-62, 4-[(4-{[1-(aminomethyl)cyclobutyl]amino}butyl)amino]-5-chloro-2-fluoro-N-(5-fluoro-1,3-thiazol-2-yl)benzenesulfonamide] | 36 | > 917

Further compounds by falling IC50 (human Nav1.7), results first:

IC50 (human Nav1.7) [nM] | SMILES | ratio of Nav 1.7 potency:Nav 1.5 potency (human Nav1.5)
39 | O=S(=O)(Nc1nccs1)c1cc(Cl)c(NCCCCNCC[C@H]2CCCN2)cc1F [Ex 16-14, 5-chloro-2-fluoro-4-{[4-({2-[(2R)-pyrrolidin-2-yl]ethyl}-amino)-butyl]-amino}-N-1,3-thiazol-2-yl-benzenesulfonamide] | > 846
38 | O=S(=O)(Nc1ncc(F)s1)c1cc(Cl)c(NCCCCNC2CNC2)cc1F [Ex 16-22, 4-{[4-(azetidin-3-ylamino)-butyl]amino}-5-chloro-2-fluoro-N-(5-fluoro-1,3-thiazol-2-yl)benzene-sulfonamide] | > 868
31 | C[C@H](NCCCCNc1cc(F)c(S(=O)(=O)Nc2nccs2)cc1Cl)[C@@H]1CCCN1 [Ex 1-27, 5-chloro-2-fluoro-4-{[4-({(1S)-1-[(2S)-pyrrolidin-2-yl]ethyl}amino)butyl]-amino}-N-1,3-thiazol-2-yl-benzenesulfonamide] | > 1070
26 | C[C@H](CCN)NCCCCNc1cc(F)c(S(=O)(=O)Nc2ncc(F)s2)cc1Cl [Ex 16-25, 4-[(4-{[(1R)-3-amino-1-methylpropyl]amino}butyl)amino]-5-chloro-2-fluoro-N-(5-fluoro-1,3-thiazol-2-yl)-benzenesulfonamide] | > 1270
23 | N[C@H]1CCC[C@H]1NCCCCNc1cc(F)c(S(=O)(=O)Nc2ncc(F)s2)cc1Cl [Ex 16-64, 4-[(4-{[(1R,2S)-2-aminocyclopentyl]amino}butyl)amino]-5-chloro-2-fluoro-N-(5-fluoro-1,3-thiazol-2-yl) benzenesulfonamide] | > 1430
19 | CC(C)(CCN)NCCCCNc1cc(F)c(S(=O)(=O)Nc2ncc(F)s2)cc1Cl [Ex 16-27, 4-({4-[(3-amino-1,1-dimethylpropyl)amino]butyl}amino)-5-chloro-2-fluoro-N-(5-fluoro-1,3-thiazol-2-yl)-benzenesulfonamide] | > 1737
17 | C[C@H](CN)NCCCCNc1cc(F)c(S(=O)(=O)Nc2ncc(F)s2)cc1Cl [Ex 16-59, 4-[(4-{[(1R)-2-amino-1-methylethyl]amino}butyl)-amino]-5-chloro-2-fluoro-N-(5-fluoro-1,3-thiazol-2-yl)-benzenesulfonamide] | > 1941
13 | C[C@H](N)CNCCCCNc1cc(F)c(S(=O)(=O)Nc2nccs2)cc1Cl [Ex 16-12, 4-[(4-{[(2S)-2-aminopropyl]-amino}butyl)amino]-5-chloro-2-fluoro-N-1,3-thiazol-2-yl-benzene-sulfonamide] | > 2540
12 | O=S(=O)(Nc1ncc(F)s1)c1cc(Cl)c(NCCCCNC[C@H]2CCCN2)cc1F [Ex 16-13, 5-chloro-2-fluoro-N-(5-fluoro-1,3-thiazol-2-yl)-4-[(4-{[(2R)-pyrrolidin-2-yl-methyl]amino}-butyl)-amino] benzenesulfonamide] | 2538
9.2 | N[C@@H]1CCC[C@H]1NCCCCNc1cc(F)c(S(=O)(=O)Nc2nccs2)cc1Cl [Ex 16-09] | > 3590
8.8 | CNCCNCCCCNc1cc(F)c(S(=O)(=O)Nc2ncns2)cc1Cl [Ex 16-48, 5-chloro-2-fluoro-4-[(4-{[2-(methylamino)ethyl]amino}-butyl)amino]-N-1,2,4-thiadiazol-5-ylbenzene-sulfonamide] | > 3750
8.7 | O=S(=O)(Nc1ncc(F)s1)c1cc(Cl)c(NCCCCNC[C@H]2CCCCN2)cc1F [Ex 16-16, 5-chloro-2-fluoro-N-(5-fluoro-1,3-thiazol-2-yl)-4-[(4-{[(2R)-piperidin-2-yl-methyl]amino}butyl)-amino] benzenesulfonamide] | > 3800
8.4 | N[C@@H]1CCCC[C@H]1NCCCCNc1cc(F)c(S(=O)(=O)Nc2nccs2)cc1Cl [Ex 1-28, 4-[(4-{[(1R,2R)-2-aminocyclohexyl]amino}butyl)amino]-5-chloro-2-fluoro-N-1,3-thiazol-2-ylbenzenesulfonamide] | > 3930
8.3 | O=S(=O)(Nc1ncns1)c1cc(Cl)c(NCCCCNC[C@H]2CCCN2)cc1F [Ex 16-17, 5-chloro-2-fluoro-4-[(4-{[(2R)-pyrrolidin-2-yl-methyl]amino}butyl)amino]-N-1,2,4-thiadiazol-5-yl-benzenesulfonamide] | > 3980
